The record followed here is PMC9501356, “New Sulfamethoxazole Derivatives as Selective Carbonic Anhydrase IX and XII Inhibitors: Design, Synthesis, Cytotoxic Activity and Molecular Modeling” (Pharmaceuticals, 2022).

Each structure is given as a SMILES string. In brackets after ≈: the same amount, converted by molar mass. Read-outs that look alike come from different tables or passages of the source.

One data set addresses T1, hCA II (Homo sapiens, UniProt P00918).
T1 construct: purchased BPS bioscience (CA, USA)
Description: CAII inhibitory assay (p-nitrophenyl acetate). The following applies: average ± SEM, three independent experiments; read-out: Carbonic Anhydrase IC50 (uM) hCA II. It counts as biochemical. As for the experimental part: CAII was assayed following the manufacturer’s instruction and reported method (Supplementary Material Section S2) (Table 2). […]
(§1) Carbonic Anhydrase (CA) catalyzes the reversible reaction of CO2 +
(§2) H2O = HCO3- + H+. […]
(§3) 400 nm[40] and the activity was calculated using the following equation: […]
= HCO3- + H+. […]
(§4) 96 well plate. […]
(§5) 400 nm[41] and the activity was calculated using the following equation: […]
S2.2.5. CAII inhibitory assay
CAII was assayed following the manufacturer’s instruction. A amount
of 1,400 pmol/min/µg assay mixture containing 100 mM NaCl, 15 mM Tris-

For data set [1], the target named is T2, recombinant Human Carbonic Anhydrase I (Homo sapiens, UniProt P00915).
T2 construct: purchased R and D system (MN, USA)
Put plainly: CA1 inhibitory assay (4-nitrophenyl acetate esterase). It is filed as biochemical. The following applies: average ± SEM, three independent experiments; read-out: Carbonic Anhydrase IC50 (uM) hCA I. The procedure: The hCA I was assayed following the manufacturer’s instruction and reported method (Supplementary Material Section S2) (Table 2). […]
as §1
H2O = HCO3- + H+. Carbonic Anhydrase I (CAI) was measured following the manufacturer’s instruction. […]
as §3
S2.2.4. CA1 inhibitory assay
(§6) Carbonic Anhydrase (CA) cataly zes the reversible reaction of CO2 + H2O = HCO3- + H+. Carbonic Anhydrase I (CAI) was measured following the […]
Tris, 75 mM NaCl, pH 7.5). The substrate (4-Nitroph enyl acetate, 4NPA, 100 mM stock in acetone) was diluted in 2 mM in assay buffer. The reaction was started by adding 50 µL of 2 mM substrate with 50 µL of 100 ng/µL rhCAI in […]
as §4, §5

Another data set addresses T3, hCA IX (Homo sapiens, UniProt Q16790).
T3 construct: purchased BPS bioscience (CA, USA)
Put plainly: hCA IX inhibitory assay. It is filed as biochemical. As to conditions: average ± SEM, three independent experiments; read-out: Carbonic Anhydrase (IC50, nM) CA-IX. The procedure:
The hCA IX was assayed following the manufacturer’s instruction and reported method. (Table 1, Figure 3A,B) (Supplementary Material Section S2). […]
mixture was incubated for 30 min at room temperature and the absorbance was measured at 405nm.
(§7) S2.2.3. hCAXII inhibitory assay
as §1
H2O = HCO3- + H+. Carbonic Anhydrase I (CAI) was measured following the manufacturer’s instruction. In brief, recombinant Human
Carbonic Anhydrase XII (rh CAXII) was diluted to […] in assay buffer (12.5 mM Tris, 75 mM NaCl, pH 7.5). The substrate (4-Nitrophenyl acetate, 4NPA, 100 mM stock in acetone) was diluted in 2 mM in assay buffer. The reaction was started by adding 50 µL of 2 mM substrate with 50 µL of 20 ng/µL rhCAXII in 96 well plate. Substrate blank containing 50 µL of assay buffer and 50 µL of substrate was included. The kinetics for 5 min of the reaction mixtures were measured at wavelength of 400 nm[40] and the activity was calculated using the following equation: […]
as §6, §5
CAII was assayed following the manufacturer’s instruction. […] Incubate for 30 min at RT and the resulted absorbance was measured at 405 nm. […]

Another data set deals with MCF7 cells. Put plainly: MTT cytotoxicity assay on MCF7 (hypoxia and normoxia). It counts as cell-based. As to conditions: Homo sapiens. The procedure:
(§8) Suppling, specification and incubation of MCF7 and MCF10a cell lines were carried out according to the method mentioned in detail in Supplementary Material Section S2.
(§9) MTT assay is a method used for in vitro cytotoxicity of different compounds. The method details are illustrated in Supplementary Material Section S2. […]
(§10) Carbonic Anhydrase (CA) catalyzes the reversible reaction of CO2 + […]
as §2
(§11) 400 nm[40] and the activity was calculated using the following equation: […] = HCO3- + H+. […]
as §4, §5
(§12) S2.2.6. Cell culture Protocol
(§13) MCF7 and MCF10a cell lines were obtained from American Type
(§14) Culture Collection, the cultured cells were grown using DMEM
(§15) (Invitrogen/Life Technologies) in 10% fetal bovine serum (FBS), 10 μg/ml of insulin (Sigma), and 1% penicillin-streptomycin antibiotics. Other chemicals and reag ents were from ob tained f rom S igma or In vitrogen. Cells d en sity was 1.2 – 1.8 × 10^3 cells/well in a volume of 100 µl complete growth medium + 100 μl of the tested compound/well in a 96-well plate for 24 hours performing […]
(§16) assay. After treatment of cells with the serial concentrations of the tested compounds, incubation for 48 h at 37 °C is carried out.
(§17) S2.2.7. MTT – Cytotoxicity assay protocol
MTT assay is a method used for in vitro cytotoxicity of different compounds. […]

The nature of data set [2]: MTT cytotoxicity assay on MCF10a. It counts as cell-based. As to conditions: human, MCF10a normal breast cells, MCF10a normal breast cell line. As for the experimental part:
as §8, §9, §10, §2, §11, §4, §5, §12, §13, §14, §15, §16, §17
(§18) MTT assay is a method used for in vitro cytotoxicity of different compounds. MTT vial was reconstituted in 3 ml growth media and diluted
(§19) MTT in an amount equal to 10% of the culture medium volume. After 4hrs incubation of the reagent with the treated MCF7 and MCF10a cells, culture media was removed from incubator and dissolve the resulting formazan crystals by adding an amount of MTT solubilizing solution equal volume with the original culture medium.
A general note: Formazan colour is commonly taken as a measure of viable cells.

A further data set concerns MCF10a cells. Put plainly: MTT cytotoxicity assay on MCF10a. It is filed as cell-based. As to conditions: MCF10a normal breast cell line. The procedure: as §8, §9, §10, §2, §11, §4, §5, §12, §13, §14, §15, §16, §17, §18, §19
The target in data set [3] is T4, recombinant Human Carbonic Anhydrase XII (Homo sapiens, UniProt O43570).
T4 construct: purchased R and D system (MN, USA)
Put plainly: hCA XII inhibitory assay (4-nitrophenyl acetate esterase). It is filed as biochemical. As to conditions: average ± SEM, three independent experiments; read-out: Carbonic Anhydrase (IC50, nM) CA-XII. As for the experimental part:
mixture was incubated for 30 min at room temperature and the absorbance […]
as §7, §1
H2O = HCO3- + H+. Carbonic Anhydrase I (CAI) was measured following the manufacturer’s instruction. In brief, recombinant Human […]
mM Tris, 75 mM NaCl, pH 7.5). The substrate (4-Nitrophenyl acetate, 4NPA, 100 mM stock in acetone) was diluted in 2 mM in assay buffer. The reaction was started by adding 50 µL of 2 mM substrate with 50 µL of 20 ng/µL rhCAXII in 96 well plate. Substrate blank containing 50 µL of assay buffer and 50 µL of substrate was included. The kinetics for 5 min of the reaction mixtures were measured at wavelength of 400 nm[40] and the activity was calculated using the following equation:
Specific Activity (pmol/min/µg) = Adjusted Vmax (OD/ mi n) x Conver sion Factor (pmol /OD) amount of enzyme (µg) S2.2.4. CA1 inhibitory assay
as §6
Tris, 75 mM NaCl, pH 7.5). The substrate (4-Nitroph enyl acetate, 4NPA, 100 mM stock in acetone) was diluted in 2 mM in assay buffer. The reaction was started by adding 50 µL of 2 mM substrate with 50 µL of 100 ng/µL rhCAI in 96 well plate. […]
as §5

T2 sequence (P00915 whole entry): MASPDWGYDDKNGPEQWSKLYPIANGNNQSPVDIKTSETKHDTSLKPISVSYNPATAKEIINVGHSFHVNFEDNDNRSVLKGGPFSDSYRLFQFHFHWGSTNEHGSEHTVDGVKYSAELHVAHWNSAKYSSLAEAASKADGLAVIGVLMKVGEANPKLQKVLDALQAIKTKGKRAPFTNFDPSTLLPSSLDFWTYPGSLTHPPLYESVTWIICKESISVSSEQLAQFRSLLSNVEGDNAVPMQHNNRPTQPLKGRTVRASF
T4 sequence (O43570 25-354): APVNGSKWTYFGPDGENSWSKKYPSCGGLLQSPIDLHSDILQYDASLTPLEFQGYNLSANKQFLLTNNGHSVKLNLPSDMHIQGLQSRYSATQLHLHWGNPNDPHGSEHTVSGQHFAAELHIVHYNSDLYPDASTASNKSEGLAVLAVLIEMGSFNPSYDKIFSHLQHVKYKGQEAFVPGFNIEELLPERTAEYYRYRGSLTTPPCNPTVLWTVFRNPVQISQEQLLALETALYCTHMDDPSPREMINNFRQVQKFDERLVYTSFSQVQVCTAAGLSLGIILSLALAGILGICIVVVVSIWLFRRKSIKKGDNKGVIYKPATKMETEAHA

Consider `C=CCN(c1cc(C)on1)S(=O)(=O)c1ccc(N)cc1` [S2, N-Allyl-4-amino-N-(5-methylisoxazol-3-yl)benzenesulfonamide], for which the results for the IC50 (on hCA II; in data set [1]) were 0.102 ± 0.006 µM and 0.177 ± 0.008 µM, respectively.

In the case of `CCCN(c1cc(C)on1)S(=O)(=O)c1ccc(N)cc1` [S3, 4-Amino-N-(5-methylisoxazol-3-yl)-N-propylbenzenesulfonamide], the IC50 was found to be 0.199 ± 0.011 µM on hCA II, 0.042 nM on hCA IX and 0.08 ± 0.003 µM in data set [1].

In the case of `Cc1ccc(C(=O)Nc2ccc(S(=O)(=O)Nc3cc(C)on3)cc2)cc1` [S8, 4-Methyl-N-(4-(N-(5-methylisoxazol-3-yl)sulfamoyl)phenyl)benzamide], the IC50 came to 3.64 ± 0.2 µg/mL (≈ 9.8 µM) in the data set with MCF7 cells (MCF7, MCF7, hypoxia, read-out: Cytotoxicity (IC50 µg/mL) MCF7 Hypoxia); 7.68 ± 0.41 µg/mL (≈ 20.7 µM) with MCF7 cells (MCF7, MCF7, normoxia, read-out: Cytotoxicity (IC50 µg/mL) MCF7 Normoxia); 1.85 ± 0.12 µM on hCA II; 1.02 ± 0.049 µM in data set [1]. This compound also showed an IC50 at 48 h in data set [2] of 31.6 ± 1.71 µg/mL (≈ 85.2 µM).

As for `Cc1cc(NS(=O)(=O)c2ccc(NC(=O)c3ccc(Cl)cc3)cc2)no1` [S9, 4-Chloro-N-(4-(N-(5-methylisoxazol-3-yl)sulfamoyl)phenyl)benzamide], the IC50 at hCA II came to 0.543 ± 0.03 µM; in data set [1], 0.121 ± 0.006 µM. Moreover, the “Cytotoxicity (IC50 µg/mL) MCF10a” value with MCF10a cells worked out at 46.72 ± 2.52 µg/mL. The IC50 at 48 h in data set [2] turned out to be 34.7 ± 1.87 µg/mL (≈ 88.6 µM).

Regarding `Cc1ccc(/C=C2\SC(Nc3ccc(S(=O)(=O)Nc4cc(C)on4)cc3)=NC2=O)cc1` [S19, (Z)-4-((5-(4-Methylbenzylidene)-4-oxo-4,5-dihydrothiazol-2-yl)amino)-N-(5-methylisoxazol-3-yl)benzenesulfonamide], in data set [3], the IC50 stood at 0.9 nM.
